Assay [1] relates to HT-22 cells. The experiment in a line: Recovery of ATP production capability reduced by amyloid beta (luciferin/luciferase). As to conditions: compound 5 μM, amyloid beta 5 μM, 7 hours, amyloid beta vehicle control without drug = 0%. It counts as cell-based. The procedure: (§1) Meanwhile, the compound represented by Formula 1 according to the present invention is evaluated through a test to determine recovery of mitochondrial functions damaged by amyloid beta, as described in the following Test Example. After the test, the results are shown in terms of the percentages of mitochondrial function disorder caused by amyloid beta. The degree of mitochondrial function disorder caused by amyloid beta is taken as 0% and the normal condition in the absence of amyloid beta is shown as 100%.
To a transparent 96-well plate, HT-22 cells are inoculated in a number of 10,000 per well one day before the test, followed by treatment with each compound to a final concentration of 5 μM per well. The cells are cultured at 37° C. for 10 minutes. Particularly, for each drug, two wells are treated with amyloid beta (5 μM) and the other two wells are treated with the vehicle control (5 μM DMSO). After the treatment, the cells are cultured at 37° C. for 7 hours. The cells treated with each drug are washed twice with PBS, lysed with Triton X-100 (1% in TSBT buffer) and agitated at room temperature for 5 minutes. […] is used to determine the protein amount of each well, and the same amount of protein taken from each well is added to a white 96-well plate. Then, […] (Molecular Probe, USA) for ATP determination containing d-luciferin and luciferase is added thereto and emission peaks generated from each of the wells are determined. After the determination, the peaks are normalized by taking the vehicle control to which amyloid beta is added without treatment with any drug as 0%.

In assay [2] the test system is HT-22 cells. The assay is described as follows: Improvement in mitochondrial membrane potential dropped by amyloid beta (JC-1 dye). It counts as cell-based. The conditions noted are these: compound 5 μM, amyloid beta 5 μM, 3 hours, JC-1 green:red ratio, amyloid beta damage = 0%, normal = 100%. The procedure:
as §1
To a transparent 96-well plate, HT-22 cells are inoculated in a number of 30,000 per well one day before the test. On the next day, JC-1 dye (Stratagen, USA) is diluted with Opti-MEM containing no phenol red to a concentration of 7.5 μM, and the resultant dilution is used to treat the cells for 1 hour and 15 minutes. The dyed cells are washed twice with phosphate buffer solution (PBS), followed by treatment with each compound to a final concentration of 5 μM per well. Then, the cells are cultured at 37° C. for 10 minutes. Particularly, for each drug, two wells are treated with amyloid beta (5 μM) and the other two wells are treated with the vehicle control (5 μM DMSO). Then, the cells are cultured at 37° C. for 3 hours. The fluorescence intensity of each well is read by using a fluorescence plate reader at 485/535 nm (green/J-monomer) and 560/595 nm (red/J-aggregate). Then, the ratio of green:red is calculated and the results are normalized by taking the change of the ratio between addition of amyloid beta and no-addition of amyloid beta in the vehicle control non-treated with drugs as 100%.

In the case of `Cc1ccc(C(C)C)cc1NC(=O)Cn1c(Cc2c(Cl)cccc2Cl)nc2ccccc21` [Compound 23, 2-(2-(2,6-dichlorobenzyl)-1H-benzo[d]imidazol-1-yl)-N-(5-isopropyl-2-methylphenyl)acetamide], the “ATP Production Capability Recovery (%) (5 μM)” value in the assay on HT-22 cells [1] was found to be 95%. Besides, the “Improvement in Membrane Potential (%) (5 μM)” value (“Improvement … (%) (5 μM)” below) in the assay on HT-22 cells [2] is 74%.

In the case of `Cc1ccc(C(C)C)cc1NC(=O)Cn1c(-c2cc(Cl)ccc2Cl)nc2ccc(Cl)cc21` [Compound 25, 2-(6-chloro-2-(2,5-dichlorophenyl)-1H-benzo[d]imidazol-1-yl)-N-(5-isopropyl-2-methylphenyl)acetamide], the “ATP Production Capability Recovery (%) (5 μM)” value with HT-22 cells [1] was 69%. Further, the “Improvement … (%) (5 μM)” value with HT-22 cells [2] came out at 87%.

Take `CCN1CCCC1CNC(=O)c1ccc(Cn2c(Cc3c(Cl)cccc3Cl)nc3ccccc32)cc1` (stereo not shown) [Compound 32, 4-((2-(2,6-dichlorobenzyl)-1H-benzo[d]imidazol-1-yl)methyl)-N-((1-ethylpyrrolidin-2-yl)methyl)benzamide]: the “ATP Production Capability Recovery (%) (5 μM)” value with HT-22 cells [1] came out at 51%. Also, the “Improvement … (%) (5 μM)” value in the assay on HT-22 cells [2] worked out at 90%.

Regarding `CN(C)CCCNC(=O)c1ccc(Cn2c(Cc3c(Cl)cccc3Cl)nc3ccccc32)cc1` [Compound 34, 4-((2-(2,6-dichlorobenzyl)-1H-benzo[d]imidazol-1-yl)methyl)-N-(3-(dimethylamino)propyl)benzamide], the “ATP Production Capability Recovery (%) (5 μM)” value in the assay on HT-22 cells [1] is listed as 85%. In the assay on HT-22 cells [2], the “Improvement … (%) (5 μM)” value is recorded as 82%.

As to `O=C(NCCCN1CCCCC1)c1ccc(Cn2c(Cc3c(Cl)cccc3Cl)nc3ccccc32)cc1` [Compound 37, 4-((2-(2,6-dichlorobenzyl)-1H-benzo[d]imidazol-1-yl)methyl)-N-(3-(piperidin-1-yl)propyl)benzamide], the “ATP Production Capability Recovery (%) (5 μM)” value in the assay with HT-22 cells [1] is reported as 64%. The “Improvement … (%) (5 μM)” value in the assay with HT-22 cells [2] came out at 90%.

The values above are taken from patent publication US20140114067A1, “BENZIMIDAZOLE DERIVATIVES AS MITOCHONDRIAL FUNCTION MODULATORS” (KOREA INSTITUTE OF SCIENCE AND TECHNOLOGY, priority 2012, published 2014).
